Experiment [1] has as its target T1, recombinant human B1 receptors (Homo sapiens, UniProt P46663).
T1 construct: host or cells: CHO (CHO-B1)
T1 sequence (P46663 1-353): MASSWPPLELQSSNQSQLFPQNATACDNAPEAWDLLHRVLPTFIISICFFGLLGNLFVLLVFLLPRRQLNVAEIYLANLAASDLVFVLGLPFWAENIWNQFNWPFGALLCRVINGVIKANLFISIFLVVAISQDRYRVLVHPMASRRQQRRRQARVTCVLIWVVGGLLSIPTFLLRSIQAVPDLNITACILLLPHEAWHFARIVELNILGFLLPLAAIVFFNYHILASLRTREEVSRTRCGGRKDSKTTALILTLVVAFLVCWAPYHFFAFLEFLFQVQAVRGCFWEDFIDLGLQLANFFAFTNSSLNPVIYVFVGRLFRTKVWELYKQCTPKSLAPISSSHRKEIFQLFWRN
Kind of experiment: Functional assay: antagonist potency by cytosolic calcium measurement (plate reader fluorimeter) in CHO-B1 cells, agonist LysDABK. The format is cell-based. The essentials:
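IC50 is the concentration giving half-maximal inhibition of the LysDABK (EC80) calcium response, fitted from at least three experiments. CHO cells stably expressing human B1 were dye-loaded, exposed to compound for 20-25 min, then read by fluo-4 fluorescence (ΔF/F) at 37 °C.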

Experiment [2] concerns the target T2, human recombinant bradykinin B1 receptor (Homo sapiens, UniProt P46663).
T2 construct: host or cells: CHO cells, clone hB1-A5
T2 sequence (P46663 1-353): T1 sequence (P46663 1-353)
Kind of experiment: Human recombinant bradykinin B1 receptor competitive radioligand binding. The essentials:
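Competition radioligand binding on CHO-expressed hB1 membranes, using [3,4-prolyl-3,4-^3H(N)]-[Des-Arg^10] Kallidin as tracer, 15 min at 25° C. Excess Lys-des-Arg^9-Bradykinin (10 μM) set nonspecific binding. Sigmoidal fits of at least seven concentrations gave IC50, converted to Ki via Cheng-Prusoff; KD from Scatchard.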

[3] abbreviates: CHO-B1 cells, inhibition of LysDABK (EC80)-evoked [Ca2+]i elevation, read-out: B1 func.
The mark [4] stands for this setting: hB1 expressed in CHO cells, [3H]-[Des-Arg10] Kallidin radioligand, read-out: B1 binding.
The mark [5] stands for this setting: reference compounds, functional test, measured by the applicant, read-out: IC50.
The mark [6] stands for this setting: reference compounds, binding test, measured by the applicant, read-out: Ki.

Read-outs that look alike come from different tables or passages of the source.

Turning to `COc1cc(C(=O)NC2(C(=O)N[C@H](C)c3ccc(-n4c(-c5noc(C)n5)c(Cl)c5ccccc54)cc3F)CC2)on1` [Example 191, 3-Methoxy-isoxazole-5-carboxylic acid [1-((R)-1-{4-[3-chloro-2-(5-methyl-[1,2,4]oxadiazol-3-yl)-indol-1-yl]-2-fluoro-phenyl}-ethylcarbamoyl)-cyclopropyl]amide], the IC50 in experiment [1] (setting [3]) was less than 20 nM. The Ki in experiment [2] (setting [4]) was less than 20 nM.
For `COc1cc(C(=O)NC2(C(=O)NCc3ccc(-n4c(-c5noc(C)n5)c(Cl)c5ccccc54)cc3F)CC2)on1` [Example 192, 3-Methoxy-isoxazole-5-carboxylic acid (1-{4-[3-chloro-2-(5-methyl-[1,2,4]oxadiazol-3-yl)-indol-1-yl]-2-fluoro-benzylcarbamoyl}-cyclopropyl)-amide], the IC50 in experiment [1] (setting [3]) is less than 20 nM. Moreover, the Ki in experiment [2] (setting [4]) was less than 20 nM.
Turning to `COc1cc(C(=O)NC2(C(=O)NCc3ccc(-n4c(-c5nc(C)no5)c(Cl)c5ccccc54)cc3)CC2)on1` [Example 193, 3-Methoxy-isoxazole-5-carboxylic acid (1-{4-[3-chloro-2-(3-methyl-[1,2,4]oxadiazol-5-yl)-indol-1-yl]-benzylcarbamoyl}-cyclopropyl)-amide], the IC50 in experiment [1] (setting [3]) was less than 20 nM. Moreover, the Ki in experiment [2] (setting [4]) is less than 20 nM.
On to `Cc1noc(-c2c(Cl)c3ccccc3n2-c2ccc(CNC(=O)C3(NC(=O)C(F)(F)F)CC3)cc2)n1` [Example 194, 1-(2,2,2-Trifluoro-acetylamino)-cyclopropanecarboxylic acid 4-[3-chloro-2-(3-methyl-[1,2,4]oxadiazol-5-yl)-indol-1-yl]-benzylamide], for which the IC50 in experiment [1] (setting [3]) was less than 20 nM. Besides, the Ki in experiment [2] (setting [4]) was less than 20 nM.
Consider `COc1cc(C(=O)NC2(C(=O)NCc3ccc(-n4c(-c5noc(C)n5)cc5ccccc54)cc3)CC2)on1` [Example 195, 3-Methoxy-isoxazole-5-carboxylic acid (1-{4-[2-(5-methyl-[1,2,4]oxadiazol-3-yl)-indol-1-yl]-benzylcarbamoyl}-cyclopropyl)-amide], for which the IC50 in experiment [1] (setting [3]) was less than 20 nM. The Ki in experiment [2] (setting [4]) is less than 20 nM.
For the compound `COc1cc(C(=O)NC2(C(=O)NCc3ccc(-n4c(-c5nc(C)no5)cc5ccccc54)cc3)CC2)on1` [Example 196, 3-Methoxy-isoxazole-5-carboxylic acid (1-{4-[2-(3-methyl-[1,2,4]oxadiazol-5-yl)-indol-1-yl]-benzylcarbamoyl}-cyclopropyl)-amide], in experiment [1] (setting [3]), the IC50 lay within 20 to 100 nM. In addition, in experiment [2] (setting [4]), the Ki is less than 20 nM.
The matching figures for `COc1cc(C(=O)NC2(C(=O)NCc3ccc(-n4c(-c5noc(C)n5)c(Cl)c5cc(F)ccc54)cc3F)CC2)on1` [Example 197, 3-Methoxy-isoxazole-5-carboxylic acid (1-{4-[3-chloro-5-fluoro-2-(5-methyl-[1,2,4]oxadiazol-3-yl)-indol-1-yl]-2-fluoro-benzylcarbamoyl}-cyclopropyl)-amide]: less than 20 nM and less than 20 nM.
The matching figures for `COc1cc(C(=O)NC2(C(=O)NCc3ccc(-n4c(-c5noc(C)n5)c(F)c5cc(F)ccc54)cc3)CC2)on1` [Example 198, 3-Methoxy-isoxazole-5-carboxylic acid (1-{4-[3,5-difluoro-2-(5-methyl-[1,2,4]oxadiazol-3-yl)-indol-1-yl]-benzylcarbamoyl}-cyclopropyl)-amide]: less than 20 nM and less than 20 nM.
In the case of `Cc1nc(-c2c(F)c3cc(F)ccc3n2-c2ccc(CNC(=O)C3(NC(=O)C(F)(F)F)CC3)cc2)no1` [Example 199, 1-(2,2,2-Trifluoro-acetylamino)-cyclopropanecarboxylic acid 4-[3,5-difluoro-2-(5-methyl-[1,2,4]oxadiazol-3-yl)-indol-1-yl]-benzylamide], in experiment [1] (setting [3]), the IC50 is less than 20 nM. For the same compound, in experiment [2] (setting [4]), the Ki was less than 20 nM.
Turning to `COc1cc(C(=O)NC2(C(=O)NCc3ccc(-n4c(-c5noc(C)n5)c(C)c5cc(F)ccc54)cc3)CC2)on1` [Example 200, 3-Methoxy-isoxazole-5-carboxylic acid (1-{4-[5-fluoro-3-methyl-2-(5-methyl-[1,2,4]oxadiazol-3-yl)-indol-1-yl]-benzylcarbamoyl}-cyclopropyl)-amide], the IC50 in experiment [1] (setting [3]) is less than 20 nM. Further, the Ki in experiment [2] (setting [4]) is less than 20 nM.
With `COc1cc(C(=O)NC2(C(=O)NCc3ccc(-n4c(-c5noc(=O)n5C)c(Cl)c5ccccc54)cc3)CC2)on1` [Example 201, 3-Methoxy-isoxazole-5-carboxylic acid (1-{4-[3-chloro-2-(4-methyl-5-oxo-4,5-dihydro-[1,2,4]oxadiazol-3-yl)-indol-1-yl]-benzylcarbamoyl}-cyclopropyl)-amide], in experiment [1] (setting [3]), the IC50 is less than 20 nM. Further, the Ki in experiment [2] (setting [4]) is less than 20 nM.
Consider `CCCN1C(=O)[C@H](NC(=O)Nc2ccc(N3CCC(N4CCCCC4)CC3)cc2)N=C(c2ccc(C)cc2)c2ccccc21` [N-[4-(,4′-bipiperidin)-1′-ylphenyl]-N′-[(3R)-2,3-dihydro-5-(4-methyl-phenyl)-2-oxo-1-propyl-1H-1,4-benzodiazepin-3-yl]-urea, reference compound], for which the IC50 in experiment [1] (setting [5]) is 64.5 nM. In experiment [2] (setting [6]), the Ki was 13.4 nM.
On the same counts, the results for `CN1CCN(C(=O)C2CCN(S(=O)(=O)c3ccc(NCC(c4ccccc4)c4ccccc4)c(C(=O)N4CCOCC4)c3)CC2)CC1` [NVP-SAA164, 4-{2-[(2,2-diphenyl-ethyl)-amino]-5-{4-[4-[(4-methyl-1-piperazinyl)-carbonyl]-1-piperidinyl]-sulfonyl}-benzoyl}-morpholine, reference compound] are 33 nM and 8 nM.

(Values after patent US20130217702A1 (Richter Gedeon Nyrt., priority 2010, published 2013).)
